# Laboratory results reported in patent US5214056A, “1,3,2-dioxathiolane oxide derivative” (Japan Tobacco Inc., priority 1989, dated 1993).
# Columns and labels:
# [1] = biological target: T1, cathepsin B (Bos taurus, UniProt P07688); assay: Cathepsin B inhibition activity in in-vitro system; type: biochemical; conditions: cathepsin B (Sigma), benzoyl-(phenylalanyl-alginyl)-4-methyl-coumarinamide substrate, pH 6.0, 30° C. for 20 minutes; read-out: 50% inhibition concentration IC50
# T1 construct: purchased Sigma Co
# Experimental: In this experiment, a 100-mM sodium phosphate buffer solution (pH=6.0; containing 1.33-mM EDTA Na2) was used as the buffer solutions for solution preparation.
# A solution mixture consisting of the following components was prepared.
# The above buffer solution; 850 μl
# A 20-μM solution obtained by dissolving the compound of the present invention in the above buffer solution; 50 μl
# A solution obtained by dissolving cathepsin B (available from Sigma Co.) in the above buffer solution to have a concentration of 0.5 mg/ml; 50 μl
# 50 μl of a 200-μM solution obtained by dissolving benzoyl-(phenylalanyl-alginyl)-4-methyl-coumarinamide in the above buffer solution were added to the above solution mixture, and the resultant solution was incubated at 30° C. for 20 minutes.
# After the incubation, the reaction solution mixture was cooled in an ice bath to stop the reaction. After 20 minutes elapsed, the fluorescence intensity (b1) at an excitation wavelength of 370 nm and an emission wavelength of 440 nm was measured. At the same time, an experiment was performed using the above buffer solution in place of the solution of cathepsin B in the above system, and fluorescence intensity (b2) was measured following the same procedures as described above. In addition, an experiment was performed using the above buffer solution in place of the buffer solution of the compound of the present invention, and fluorescence intensity (b3) was measured following the same procedures as described above.
# An inhibition ratio was calculated in accordance with the following equation: [formula] and a concentration (IC50) required for 50% inhibition was calculated by using a semilogarithmical graph.
# [2] = biological target: T2, Purified calpain (CANP) sampled from a rat brain (Rattus norvegicus, UniProt Q07009); assay: CANP inhibition activity in in vitro system; type: biochemical; conditions: N,N-dimethylcasein substrate, 30° C. for 20 minutes, pH 7.4, read-out: 50% inhibition concentration IC50
# T2 construct: sampled from a rat brain; from tissue; host or cells: rat brain
# T2 sequence (Q07009 1-700): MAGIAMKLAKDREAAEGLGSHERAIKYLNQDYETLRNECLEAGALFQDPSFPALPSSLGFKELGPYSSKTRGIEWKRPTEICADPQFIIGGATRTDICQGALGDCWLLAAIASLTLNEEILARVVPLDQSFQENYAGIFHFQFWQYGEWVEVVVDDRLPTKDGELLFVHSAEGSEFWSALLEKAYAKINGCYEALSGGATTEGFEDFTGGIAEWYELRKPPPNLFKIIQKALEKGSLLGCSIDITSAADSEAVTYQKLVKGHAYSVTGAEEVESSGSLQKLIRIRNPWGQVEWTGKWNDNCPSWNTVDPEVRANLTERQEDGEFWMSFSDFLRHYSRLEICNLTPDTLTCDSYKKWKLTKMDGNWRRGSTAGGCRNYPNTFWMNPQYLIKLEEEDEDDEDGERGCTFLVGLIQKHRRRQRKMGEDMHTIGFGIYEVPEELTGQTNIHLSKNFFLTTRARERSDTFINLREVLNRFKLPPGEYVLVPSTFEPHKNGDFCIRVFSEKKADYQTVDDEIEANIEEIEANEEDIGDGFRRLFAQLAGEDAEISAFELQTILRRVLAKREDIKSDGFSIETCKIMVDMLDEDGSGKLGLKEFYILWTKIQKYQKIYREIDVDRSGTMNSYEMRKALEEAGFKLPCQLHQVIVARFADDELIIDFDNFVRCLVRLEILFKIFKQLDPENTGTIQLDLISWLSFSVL
# T2 sequence (Q64537 1-270 partner): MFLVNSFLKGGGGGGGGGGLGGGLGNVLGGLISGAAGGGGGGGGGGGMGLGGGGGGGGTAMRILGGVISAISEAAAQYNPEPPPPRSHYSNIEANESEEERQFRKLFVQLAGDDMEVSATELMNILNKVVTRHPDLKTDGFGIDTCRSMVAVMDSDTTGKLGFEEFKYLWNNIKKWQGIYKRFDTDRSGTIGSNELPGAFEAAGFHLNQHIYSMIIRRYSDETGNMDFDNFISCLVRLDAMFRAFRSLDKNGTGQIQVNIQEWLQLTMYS
# Experimental: A solution mixture consisting of the following com-ponents was prepared.
# A 167-mM Tris hydrochloric acid buffer solution (pH=7.4) (containing 15-mM mercaptoethanol); 40 μl
# A solution obtained by dissolving the compound [I] of the present invention in the same Tris hydrochloric acid buffer solution as described above; 40 μl
# Purified calpain [obtained by a method described in J. Biol. Chem., 239, 149 (1964)] sampled from a rat brain and dissolved in a 50-mM sodium acetic acid buffer solution (pH=6.0; containing 1-mM EDTA and 5-mM mercaptoethanol) 11 units/ml; 200 μl
# An N,N-dimethylcasein solution (pH=7.0)
# 40 μl of a 167-mM Tris hydrochloric acid buffer solution (pH=7.4) containing 50-mM CaCl2 were added to the above solution mixture, and the resultant solution was incubated at 30° C. for 20 minutes. After the incubation, 320 μl of 10% (W/V) trichloroacetic acid were added to stop the reaction, and the resultant solution was left to stand in an ice bath for one hour. Thereafter, the solution was subjected to centrifugal separation (16,100×g, five minutes), and 600 μl of the supernatant were sampled to measure absorbance (a1) at 280 nm.
# In another step, absorbance (a2) was obtained by performing an experiment and measurement following the same procedures as described above except that a 167-mM Tris hydrochloric acid buffer solution (pH=7.4; containing 15-mM mercaptoethanol) was used in place of the 167-mM Tris hydrochloric acid buffer solution containing the compound of the present invention. In addition, absorbance (a3) was obtained by performing an experiment and measurement following the same procedures as described above except that a 167-mM Tris hydrochloric acid buffer solution (pH=7.4; containing 1-mM EDTA) was used in place of the 167-mM tris buffer solution (pH=7.4) containing 50-mM CaCl2.
# An inhibition ratio was calculated from the above absorbance values (a1), (a2), and (a3) in accordance with the following equation: [formula]
# In addition, a concentration (IC50) required for 50% inhibition was calculated by using a semilogarithmical graph.
SMILES,IC50 [1] [nM],IC50 [2] [nM]
CCCCN(CCCC)C(=O)[C@H](CC(C)C)NC(=O)[C@H]1OS(=O)(=O)O[C@@H]1C(=O)OCC [Example 14],15,–
"CC(C)CCNC(=O)[C@H](CC(C)C)NC(=O)[C@H]1OS(=O)(=O)O[C@@H]1C(=O)O [Example 12, (4S,5S)-5[(S)-3-methyl-1-(3-methylbutylcarbamoyl)butylcarbamoyl]-1,3,2-dioxathiolane-4-carboxy-2,2-dioxide]",0.7,300
"CC(C)CC(NC(=O)C1OC1C(=O)O)C(=O)NCCCCNC(=N)N (stereo not shown) [Example E-64, E-64, reference compound]",35,7000
"CCOC(=O)[C@H]1OS(=O)(=O)O[C@@H]1C(=O)N[C@@H](CC(C)C)C(=O)NCc1ccccc1 [Example 16, Ethyl (4S,5S)-5-[(S)-1-benzylcarbamoyl-3-methylbutylcarbamoyl]-1,3,2-dioxathiolane-4-carboxylate-2,2-dioxide]",3,–
"CC(C)CCNC(=O)[C@H](CC(C)C)NC(=O)[C@H]1OS(=O)(=O)O[C@@H]1C(=O)OCc1ccccc1 [Example 11, Benzyl (4S,5S)-5-[(S)-3-methyl-1-(3-methylbutylcarbamoyl)butylcarbamoyl]-1,3,2-dioxathiolane-4-carboxylate-2,2-dioxide]",9,6000
"CCOC(=O)[C@H]1OS(=O)(=O)O[C@@H]1C(=O)N[C@@H](CC(C)C)C(=O)NCCC(C)C [Example 4, Ethyl (4S,5S)-5-[(S)-3-methyl-1-(3-methylbutylcarbamoyl)butylcarbamoyl]-1,3,2-dioxathiolane-4-carboxylate-2,2-dioxide]",25,15000
